How the values were obtained:
[1] = system: winter wheat (cultivar Cubus); assay: Greenhouse test of herbicidal activity of glyphosate spray mixtures on winter wheat; assay type: in vivo; settings: after 21 days
Experimental: (§1) For the greenhouse tests, winter wheat (cultivar Cubus) and soybean (cultivar Oxford) were sown or potted in loamy sandy soil to a depth of 1-2 cm. When the plants had reached a growth height of 10 to 25 cm (i.e., around 10 to 21 days after sowing), the spray mixtures were applied to the plants in a spraying cabin.
(§2) A concentrated formulation comprising glyphosate isopropylammonium in solution in water comprising the surfactants stated and amine alkoxylate A from Example 1 was diluted with deionized water and applied at a water application rate of 375 l/ha (140 g or 280 g of glyphosate/ha). The temperatures in the experimental period were between 18-35° C. During this time, the experimental plants received optimum watering, with nutrients being supplied via the water used for watering.
(§3) The herbicidal activity was evaluated by awarding scores to the treated plants (four each time) in comparison to the untreated control plants. The evaluation scale ranges from 0% to 100% activity. 100% activity means the complete death at least of those parts of the plant that are above ground.

[2] = system: soybean (cultivar Oxford); assay: Greenhouse test of herbicidal activity of glyphosate spray mixtures on soybean; assay type: in vivo; settings: after 21 days
Experimental: as §1, §2, §3

[3] = 140 g/ha glyphosate, without amine alkoxylate/surfactant
[4] = 280 g/ha glyphosate, without amine alkoxylate/surfactant
[5] = 140 g/ha glyphosate, amount 300 g/ha
[6] = 280 g/ha glyphosate, amount 300 g/ha

**Q.** Which results are given for CC(C)N.O=C(O)CNCP(=O)(O)O [Without, glyphosate isopropylammonium]?
**A.** Winter wheat efficacy [1, 3]: 53%; Winter wheat efficacy [1, 4]: 68%; Soybean efficacy [2, 3]: 10%; Soybean efficacy [2, 4]: 10%

**Q.** For “C10-13-alkylbenzenesulfonate, free acid [Surfactant A]”, which Winter wheat efficacy [1, 5] is on record?
**A.** Its Winter wheat efficacy is 84%.

**Q.** And the Winter wheat efficacy [1, 6]?
**A.** Its Winter wheat efficacy is 90%.

**Q.** What about the Soybean efficacy [2, 5] of the same compound?
**A.** Its Soybean efficacy is 64%.

**Q.** What about the Soybean efficacy [2, 6] of the same compound?
**A.** The Soybean efficacy was 71%.
